Literature values, collected in article PMC11333285, “Inhibition of lysine acetyltransferase KAT6 in ER^+HER2^− metastatic breast cancer: a phase 1 trial” (Nature Medicine, 2024).
Like-named read-outs stand apart in the source and are kept apart here.

How the values were obtained:
mBC with ESR1 mutations = test system: mBC with ESR1 mutations; parameters: method as in PMID 35584336; conditions: patients with ESR1 mutations
HR+/HER2− mBC [1] = test system: HR+/HER2− mBC; parameters: method as in PMID 34357781; conditions: HR+/HER2− mBC progressed after aromatase inhibitors
HR+/HER2− mBC [2] = test system: HR+/HER2− mBC; parameters: method as in PMID 35583555, PMID 35584336; conditions: all comers after first-line CDK4/6 inhibitors and ET

SMILES: CCNCCc1ccc(CN(CC)c2cc(OC)ccc2[C@@H]2CCc3cc(O)ccc3C2)cc1 [elacestrant]
- mPFS (mBC with ESR1 mutations): 3.8 months

SMILES: Nc1ccccc1NC(=O)c1ccc(CNC(=O)OCc2cccnc2)cc1 [entionostat plus ET]
- mPFS (HR+/HER2− mBC [1]): 3.3 months

SMILES: C[C@]12CC[C@@H]3c4ccc(O)cc4C[C@@H](CCCCCCCCC[S+]([O-])CCCC(F)(F)C(F)(F)F)[C@H]3[C@@H]1CC[C@@H]2O (stereo partly shown) [fulvestrant]
- CBR (HR+/HER2− mBC [2]): 13.7%
- mPFS (HR+/HER2− mBC [2]): 2 months
